Entries after “also recorded” stand apart in the source; their conditions may differ.
What was measured:
SHIP1 = target: T1, SHIP1 (Homo sapiens, UniProt Q92835); assay: SHIP1 inhibitor activity; format: biochemical; details: compared with 3AC
T1 sequence (Q92835 1-1189): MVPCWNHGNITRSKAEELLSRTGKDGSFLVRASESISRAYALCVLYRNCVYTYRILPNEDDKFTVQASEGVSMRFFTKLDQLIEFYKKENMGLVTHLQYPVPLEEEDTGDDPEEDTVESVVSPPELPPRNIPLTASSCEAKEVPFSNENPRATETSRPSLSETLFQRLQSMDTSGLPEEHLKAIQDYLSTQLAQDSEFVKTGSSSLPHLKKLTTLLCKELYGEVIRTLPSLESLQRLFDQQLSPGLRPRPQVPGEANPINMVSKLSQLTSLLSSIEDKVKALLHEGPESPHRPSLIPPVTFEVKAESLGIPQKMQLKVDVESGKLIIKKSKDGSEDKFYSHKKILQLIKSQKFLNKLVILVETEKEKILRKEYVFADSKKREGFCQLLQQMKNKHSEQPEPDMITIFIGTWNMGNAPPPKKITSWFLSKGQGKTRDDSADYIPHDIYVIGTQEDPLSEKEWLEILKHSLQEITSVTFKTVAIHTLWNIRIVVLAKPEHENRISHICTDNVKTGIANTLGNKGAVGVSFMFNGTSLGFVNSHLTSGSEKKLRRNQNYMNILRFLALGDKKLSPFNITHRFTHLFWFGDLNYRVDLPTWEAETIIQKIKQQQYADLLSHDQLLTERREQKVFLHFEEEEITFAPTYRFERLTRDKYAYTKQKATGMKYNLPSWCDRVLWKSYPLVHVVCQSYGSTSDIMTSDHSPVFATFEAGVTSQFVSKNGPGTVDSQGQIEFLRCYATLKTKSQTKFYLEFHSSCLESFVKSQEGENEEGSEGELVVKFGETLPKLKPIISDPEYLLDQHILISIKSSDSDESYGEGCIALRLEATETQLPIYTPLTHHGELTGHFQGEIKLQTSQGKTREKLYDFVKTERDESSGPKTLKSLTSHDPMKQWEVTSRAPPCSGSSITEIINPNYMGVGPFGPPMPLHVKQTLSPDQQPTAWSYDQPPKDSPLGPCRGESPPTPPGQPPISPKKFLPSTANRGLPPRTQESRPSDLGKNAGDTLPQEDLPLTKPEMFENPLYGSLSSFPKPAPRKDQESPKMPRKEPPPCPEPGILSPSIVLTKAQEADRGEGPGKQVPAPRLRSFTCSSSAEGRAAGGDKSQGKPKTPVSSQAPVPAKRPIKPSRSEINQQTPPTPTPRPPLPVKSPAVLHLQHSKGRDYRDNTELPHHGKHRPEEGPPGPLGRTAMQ

[1] = tested on: immunoregulatory cells (MDSC, nTreg, neutrophils); assay: Preliminary studies: immunoregulatory cells in mice after SHIP inhibitor; format: in vivo, wt C57BL/76 mice
Description: K118 was administered in water, and in wt C57BL/76 mice.

RMA cells = assay: Survival of RMA tumor bearing mice; format: in vivo, C57BL/6 mice; details: 1×10^5 cells; treated two consecutive days each week; vs vehicle treated groups
Description: (§1) FIG. 2: C57BL/6 mice received either RM A cells (3AC RMA and Veh RMA groups) or RMA cells transfected with the NKG2D ligand Rae1 (3AC Rae1 and Veh Rae1 groups) and were treated two consecutive days each week starting twelve hours after receiving the tumor. […] The Kaplan-Meyer survival curve represents two independent, pooled, experiments of RMA-Rae1 tumor bearing mice treated with either vehicle (n=10/experiment) or SHIPi (n=10/experiment) or one experiment of RMA tumor bearing mice treated with either vehicle (n=10/experiment) or SHIPi (n=10/experiment).
(§2) To determine if short term administration of SHIPi could have an in vivo functional effect we injected 5×10^5 RMA cells transected with the NKG2D ligand Rae1 into C57BL/6 mice. RMA is a mouse BL/6 derived T cell lymphoma cell line (raucher virus induced cell leukemia cell line); thus a rejection of a tumor graft in BL/6 mice is due to the presence of the Rae1 ligand or due to SHIPi treatment. Mice were treated with SHIPi (33 mg/kg) for two consecutive days and on the third day peritoneal lavage was performed to recover peritoneal contents. […] Finally, showing that there is a survival benefit for mice receiving short term SHIPi, C57BL/6 mice were injected with 1×10^5 RMA or RMA cells transected with the NKG2D ligand Rae1 and then were treated two consecutive days with SHIPi or with vehicle control. […]

NK cells = assay: IFNγ production assay: ex vivo stimulation of NK cells from SHIPi treated mice; format: in vivo; details: vs vehicle treated mice; for IFNγ production by NK cells following ex vivo stimulation with anti-NK1.1, anti-NKp46 or anti-NKG2D antibody: mice treated daily 33 mg/kg for two days, 33 mg/kg
Description: IFNγ production assay methods: Mice were treated daily with SHIPi (33 mg/kg) for two days. Mice were sacrificed by CO2 toxicity on the third day. Splenocytes were harvested and incubated for four-five hours in six well plates in the presence of Golgiplug (BD) either alone, in plates coated with either anti-NK1.1 (PK136), anti-NKp46 (2PA1.4) or anti-NKG2D (A10) antibody or in uncoated plates but with PMA ([…]) and ionomycin as a positive control. After incubation splenocytes were removed from the plates, Fc Receptors were blocked (2.4G2) and cells were stained with the Invitrogen Aqua Live/Dead cell exclusion dye. NK cells were identified by staining for either NK1.1 (PK136) or NKp46 (29A1.4) and […] (145-2C11). T cells were excluded. Cells were fixed and permeabilized (BD Cytofx/Cytoperm kit), intracellular Fc receptors were blocked (2.4G2) and stained for IFNγ (XMG1.2). Samples were run on a BD Fortessa flow cytometer and analyzed using FloJo software.

[2] = tested on: peritoneal NK and myeloid cells; assay: Peritoneal cell populations in RMA-Rae1 tumor bearing mice (flow cytometry of lavage); format: in vivo, C57BL/6 mice; details: after two days of treatment, vs vehicle
Description: FIGS. 6A-6D: SHIPi treated mice have increased peritoneal myeloid and NK cells. FIGS. 6A-D: 5×10^5 GFP expressing RMA-Rae1 cells were injected into C57BL/6 mice. Mice were treated for two days with SHIPi or vehicle alone. Peritoneal lavage was performed on the third day. Cells collected by lavage were stained with anti-NK1.1, anti-CD3ε, anti-CD19, anti-CD11b and anti-GR1 antibodies and were analyzed by flow cytometry. All populations were determined after backgating on singlets and viable cells. NK cells are NK1.1^+CD3ε^−CD19^−, T cells are CD3ε^+NK1.1^−CD19^−, B cells are CD19^+NK1.1^−CD3ε^− and myeloid cells are CD11b^+GR1^+. FIG. 6B: Graph represents pooled data from two independent experiments using at least 4 SHIPi treated mice and 4 vehicle treated mice in each experiment.
To determine if short term administration of SHIPi could have an in vivo functional effect we injected 5×10^5 RMA cells transected with the NKG2D ligand Rae1 into C57BL/6 mice. RMA is a mouse BL/6 derived T cell lymphoma cell line (raucher virus induced cell leukemia cell line); thus a rejection of a tumor graft in BL/6 mice is due to the presence of the Rae1 ligand or due to SHIPi treatment. Mice were treated with SHIPi (33 mg/kg) for two consecutive days and on the third day peritoneal lavage was performed to recover peritoneal contents. […]

[3] = tested on: RMA cells transfected with the NKG2D ligand Rae1; assay: Survival of RMA-Rae1 tumor bearing mice; format: in vivo, C57BL/6 mice; details: 1×10^5 cells; treated two consecutive days each week; vs the other three groups
Description: as §1, §2

RMA-Rae1 cells = assay: In vivo rejection of GFP expressing RMA-Rae1 tumor cells, peritoneal lavage and flow cytometry; parameters: species or system C57BL/6 mice; details: listed as SHIPi
Description: FIG. 4A; 5×10^5 GFP expressing RMA-Rae1 cells were injected into C57BL/6 mice. Mice were treated with either SHIPi or vehicle for two days. Peritoneal lavage was performed on the third day and cells collected by lavage were analyzed by flow cytometry. Flow cytometry plots indicated GFP positive cells after removal of dead cells and non-singlets via electronic gating. FIG. 4B: Graph represents poled data from two independent experiments using at least 4 SHIPi treated mice and 4 vehicle treated mice in each experiment.
FIG. 5A: 5×10^5 GFP expressing RMA-Rae1 cells were injected into C57BL/6 once or RAG1^−/− mice. Mice were treated with either SHIPi or vehicle for two days. Peritoneal lavage was performed on the third day and cells collected by lavage were analyzed by flow cytometry. Flow cytometry plots indicated GFP positive cells after removal of dead cells and nom-singlets via electronic gating. FIG. 5B: Graph summarizes data from 5 SHIPi treated C57BL/6 mice, 5 SHIPi treated RAG1^−/− mice, 5 vehicle treated C57BL/6 mice, and 5 vehicle treated RAG1^−/− mice.
To determine if short term administration of SHIPi could have an in vivo functional effect we injected 5×10^5 RMA cells transected with the NKG2D ligand Rae1 into C57BL/6 mice. RMA is a mouse BL/6 derived T cell lymphoma cell line (raucher virus induced cell leukemia cell line); thus a rejection of a tumor graft in BL/6 mice is due to the presence of the Rae1 ligand or due to SHIPi treatment. Mice were treated with SHIPi (33 mg/kg) for two consecutive days and on the third day peritoneal lavage was performed to recover peritoneal contents. […] Finally, showing that there is a survival benefit for mice receiving short term SHIPi, C57BL/6 mice were injected with 1×10^5 RMA or RMA cells transected with the NKG2D ligand Rae1 and then were treated two consecutive days with SHIPi or with vehicle control. This was repeated each week such that mice received treatment or vehicle twice a week with five days rest in between each treatment. Treatment start days were spaced a week apart.

[4] = spleen, orally at 10 mg/kg in water

Structure (SMILES) | SHIP1 inhibitor activity relative to 3AC (SHIP1) | Water solubility (Water solubility) | Frequency of natural T regulatory cells (nTreg, CD4+CD25+FoxP3+) ([1]; mesenteric lymph node (mLN), orally at 10 mg/kg in water) | Neutrophil numbers ([1]; orally at 10 mg/kg in water) | Frequency of myeloid derived suppressor cells (MDSC) expressing Gr1 and Mac1 [1, 4] | Frequency of natural T regulatory cells (nTreg, CD4+CD25+FoxP3+) [1, 4] | Survival of RMA tumor bearing mice (RMA cells) | IFNγ production by NK cells following ex vivo stimulation with anti-NK1.1, anti-NKp46 or anti-NKG2D antibody (NK cells) | IFNγ production by NK cells following ex vivo stimulation with anti-NK1.1, anti-NKp46 or anti-NKG2D antibody (NK cells; listed as SHIPi) | IFNγ production by NK cells unstimulated or stimulated with PMA and ionomycin (NK cells; mice treated two days) | Peritoneal myeloid cells (CD11b+GR1+) [2] | Numbers of NK cells in the peritoneal cavity ([2]; listed as SHIPi) | Survival of RMA-Rae1 tumor bearing mice [3] | Tumor burden (GFP positive RMA-Rae1 cells in peritoneal lavage) (RMA-Rae1 cells; C57BL/6 mice, 5×10^5 cells, 33 mg/kg two consecutive days, lavage on third day, vs vehicle, 33 mg/kg) | Protection against RMA-Rae1 tumor in mice lacking B and T cells (RMA-Rae1 cells; RAG1−/− mice (printed RAKG−/−), two days treatment) | Protection against RMA-Rae1 tumor after in vivo depletion of NK cells (RMA-Rae1 cells; pretreated with anti-NK1.1 antibody PK136 200 ug 24 hours before tumor injection, vs isotype control antibody) | Neutrophil numbers ([1]; intraperitoneal injection)
C[C@@]12CCC[C@H]1[C@@H]1CC[C@H]3C[C@@H](N)CC[C@]3(C)[C@H]1CC2.Cl [K118, 3β-amino-5α-androstane hydrochloride] | comparable SHIP1 inhibitor activity | water-soluble | Significant increases | trend for increased neutrophil numbers | significant increase | Significant increases | – | – | – | – | – | – | – | – | – | – | –
CC(C)CCC[C@@H](C)[C@H]1CC[C@H]2[C@@H]3CCC4C[C@H](N)CC[C@]4(C)[C@H]3CC[C@]12C (stereo partly drawn) [3AC, 3 α-aminocholestane] | – | – | – | – | – | – | no significant survival difference | significantly increased IFNγ production; also recorded: significantly increased amounts of IFNγ | significantly increased IFNγ | do not see a significant difference | increased | significantly increased numbers of NK cells | significantly increased survival | significantly reduced tumor burden; also recorded: increased tumor rejection | retained protection; also recorded: not due to B or T cells | protection is significantly reduced | increased neutrophil numbers

Reference: patent US10702538B2, “Ship inhibition to induce activation of natural killer cells” (THE RESEARCH FOUNDATION FOR THE STATE UNIVERSITY OF NEW YORK, priority 2014, dated 2020)
